Measured values reported in patent US20090221687A1, “Tetracyclic Monoamine Reuptake Inhibitors for Treatment of Cns Diseases and Disorders” (priority 2005, published 2009).
Like-named read-outs stand apart in the source and are kept apart here.

Columns and labels:
logP = type: physicochemical
solubility = type: physicochemical; details: at 25° C. and ionic strength 0.15 M; read-out: solubility (S)
pKa = type: physicochemical
[1] = target: T1, Norepinephrine Transporter (NET) (Homo sapiens, UniProt P23975); details: read-out: KD of the radioligand; human recombinant MDCK cells; historical value for the KD of the ligand; cited from earlier work
T1 construct: expressed in transfected cells; host or cells: MDCK cells

[2] = target: T2, Serotonin Transporter (SERT) (Homo sapiens, UniProt P31645); details: human recombinant HEK-293 cells, historical value for the KD of the ligand, cited from earlier work
T2 construct: expressed in transfected cells; host or cells: HEK-293 cells

mice = experiment: Tail-suspension test in mice: evaluation of antidepressive efficacy; type: in vivo; details: 10 mg/kg i.p., 30 min prior to testing, vehicle control 70%
Excerpt: The aim of this study was to evaluate potential antidepressant activity of selected compounds Formula I. The tail suspension test has been routinely employed to test potential antidepressant compounds (See H. G. Vogel and W. H. Vogel, Drug Discovery and Evaluation, Pharmacological Assays, Springer-Verlag, 1997, p 304-305). The percentage of drug-treated animals showing the passive behavior (i.e., the immobility that mice display after active and unsuccessful attempts to escape when suspended by the tail) is measured and compared with vehicle-treated control animals. The duration of immobility is recorded for about 5 minutes. Mice are considered immobile when they hang passively and completely motionless for at least 1 minute. Active antidepressants reduce the immobility.
Groups of 9 animals were treated with compounds encompassed by Formula I (0.1-10 mg/kg; s.c.), or fluoxetine (10 mg/kg i.p.), and one group of 15 animals was treated with the vehicle by s.c. injection as a […] control. All animals were treated for 30 min prior to testing. The percentage of drug-treated animals showing passive behavior was determined and compared with vehicle-treated controls. […]

T2 sequence (P31645 whole entry): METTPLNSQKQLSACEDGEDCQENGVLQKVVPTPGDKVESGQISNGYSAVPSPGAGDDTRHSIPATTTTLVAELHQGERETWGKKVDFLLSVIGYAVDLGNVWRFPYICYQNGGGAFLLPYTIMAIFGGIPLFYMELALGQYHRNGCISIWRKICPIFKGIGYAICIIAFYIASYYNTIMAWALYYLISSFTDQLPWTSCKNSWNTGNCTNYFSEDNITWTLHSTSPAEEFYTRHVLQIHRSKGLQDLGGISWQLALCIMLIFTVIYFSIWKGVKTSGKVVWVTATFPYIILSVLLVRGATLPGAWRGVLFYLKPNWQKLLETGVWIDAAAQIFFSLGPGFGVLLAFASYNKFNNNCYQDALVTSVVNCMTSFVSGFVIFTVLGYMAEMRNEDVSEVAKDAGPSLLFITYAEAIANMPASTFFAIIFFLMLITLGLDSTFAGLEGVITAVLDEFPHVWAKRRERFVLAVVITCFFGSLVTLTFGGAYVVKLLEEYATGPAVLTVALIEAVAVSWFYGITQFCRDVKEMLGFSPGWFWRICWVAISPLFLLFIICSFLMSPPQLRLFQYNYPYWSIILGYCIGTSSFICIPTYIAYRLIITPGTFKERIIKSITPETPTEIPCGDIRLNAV
T1 sequence (P23975 whole entry): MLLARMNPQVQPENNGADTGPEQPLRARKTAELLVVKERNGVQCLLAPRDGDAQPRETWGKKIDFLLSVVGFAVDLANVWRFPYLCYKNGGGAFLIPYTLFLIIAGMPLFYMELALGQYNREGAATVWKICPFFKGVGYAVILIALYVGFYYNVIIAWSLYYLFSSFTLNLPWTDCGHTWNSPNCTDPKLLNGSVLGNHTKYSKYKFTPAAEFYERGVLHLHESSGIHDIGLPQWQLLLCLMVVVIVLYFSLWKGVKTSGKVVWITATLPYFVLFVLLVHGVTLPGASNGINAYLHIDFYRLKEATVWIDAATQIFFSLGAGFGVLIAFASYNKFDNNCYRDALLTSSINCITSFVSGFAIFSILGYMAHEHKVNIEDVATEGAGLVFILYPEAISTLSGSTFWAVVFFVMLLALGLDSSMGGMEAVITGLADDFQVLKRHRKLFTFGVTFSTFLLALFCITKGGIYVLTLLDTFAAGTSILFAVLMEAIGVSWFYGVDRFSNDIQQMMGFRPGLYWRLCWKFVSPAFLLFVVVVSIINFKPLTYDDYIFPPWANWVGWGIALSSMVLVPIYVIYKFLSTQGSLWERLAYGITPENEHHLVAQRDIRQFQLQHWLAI

## CCOC(=O)c1cc2c(s1)-c1cc(Cl)cc(OCCCN(C)C)c1Oc1ccccc1-2.O=C(O)CC(O)(CC(=O)O)C(=O)O [Example 2, 11-Chloro-9-(3-dimethylamino-propoxy)-8-oxa-1-thia-dibenzo[e,h]azulene-2-carboxylic acid ethyl ester citrate salt]
logP
  logP: 4.5
solubility
  solubility: 167 mg/mL
pKa
  pKa: 6.9

## COC(=O)[C@H]1[C@@H](c2ccc(I)cc2)C[C@@H]2CC[C@H]1N2C [[^125I] RTI-55, 3 beta-(4-iodophenyl)tropan-2 beta-carboxylic acid methyl ester]
[1]
  Kd: 24 nM
[2]; read-out: KD1 of the radioligand
  Kd: 0.17 nM
[2]; read-out: KD2 of the radioligand
  Kd: 2200 nM

## CNCCC(Oc1ccc(C(F)(F)F)cc1)c1ccccc1 (stereo not shown) [fluoxetine]
mice
  percentage of animals depressive (exhibiting passive behavior): 22%
